Measured values: patent publication EP1657232A1, “Use of S-enantiomers of alpha-sustituted aryl acetic acids for the prevention of Alzheimer's disease” (CELLZOME AG, priority 2004, dated 2006)

Target: T1, cyclooxygenase-1 (Cox-1) (Ovis aries, UniProt P05979)
T1 construct: purchased Cayman Chemical Company 760111
T1 sequence (P05979 25-600): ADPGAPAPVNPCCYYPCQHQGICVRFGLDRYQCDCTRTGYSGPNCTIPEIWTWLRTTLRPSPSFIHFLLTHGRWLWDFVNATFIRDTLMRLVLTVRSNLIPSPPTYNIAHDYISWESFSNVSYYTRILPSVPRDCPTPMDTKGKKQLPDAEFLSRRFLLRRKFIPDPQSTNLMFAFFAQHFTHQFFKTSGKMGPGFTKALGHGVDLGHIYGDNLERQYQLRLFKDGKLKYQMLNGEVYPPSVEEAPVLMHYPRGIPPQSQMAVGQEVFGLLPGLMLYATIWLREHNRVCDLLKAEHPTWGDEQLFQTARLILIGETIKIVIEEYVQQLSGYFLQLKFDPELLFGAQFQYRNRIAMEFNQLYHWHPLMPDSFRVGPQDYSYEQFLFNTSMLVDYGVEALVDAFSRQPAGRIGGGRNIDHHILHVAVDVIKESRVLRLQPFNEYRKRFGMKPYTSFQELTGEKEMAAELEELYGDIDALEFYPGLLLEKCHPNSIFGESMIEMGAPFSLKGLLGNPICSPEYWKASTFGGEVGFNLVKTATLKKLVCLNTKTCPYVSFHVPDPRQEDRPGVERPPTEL
Experiment: Colorimetric Cox inhibitor screening assay (Cayman Chemical, Cat. No. 760111)
Format: biochemical
Protocol: Inhibition of Cox-1 is determined using the Colorimetric Cox inhibitor screening assay provided by Cayman Chemical Company, Ann Arbor, MI, USA. (Cat. No. 760111) according to manufacturer's instructions.

inhibitory effect against Cox-1 activity: no inhibitory effect
SMILES: CC(C)[C@H](C(=O)O)c1ccc(-c2cccc(C(F)(F)F)c2)cc1 [title compound of example 1, 2(S)-(3'-trifluoromethyl-biphenyl-4-yl)-3-methyl-butanoic acid]
